Experimental data as given in US12071441B2, “10-(di(phenyl)methyl)-4-hydroxy-8,9,9A,10-tetrahydro-7H-pyrrolo[1′,2′:4,5]pyrazino[1,2-b]pyridazine-3,5-dione derivatives and related compounds as inhibitors of the orthomyxovirus replication for treating influenza” (Novartis AG, priority 2018, dated 2024).

What was measured:
Assay in all cases: microbe, parasite or virus in culture
Assay type in all cases: cell-based
[1] = test system: influenza A virus minigenome (PB2, PB1, PA, NP; luciferase reporter) in 293T cells, RNP_CAL; settings: HEK-293T, 48 h, read-out: RNP_CAL_EC50
[2] = test system: influenza A virus minigenome (PB2, PB1, PA, NP; luciferase reporter) in 293T cells, RNP_Alaska; settings: HEK-293T, 48 h
[3] = test system: influenza A virus minigenome (PB2, PB1, PA, NP; luciferase reporter) in 293T cells, RNP_Hubei; settings: HEK-293T, 48 h

| Structure (SMILES) | EC50 [1] | EC50 [2] | EC50 [3] |
| --- | --- | --- | --- |
| O=C1c2c(O)c(=O)cnn2[C@@H]([C@@H](c2ccc(F)cc2)c2cccc(C(F)(F)F)c2)[C@H]2CCCN12 [Example 1, (9aR,10S)-10-((S)-(4-fluorophenyl)(3-(trifluoromethyl)phenyl)methyl)-4-hydroxy-8,9,9a,10-tetrahydro-7H-pyrrolo[1′,2′:4,5]pyrazino[1,2-b]pyridazine-3,5-dione] | < 100 nM | < 100 nM | < 100 nM |
| O=C1c2c(O)c(=O)cnn2[C@@H]([C@@H](c2ccc(F)cc2)c2ccc(C(F)(F)F)cc2)[C@H]2CCCN12 [Example 2, (9aR,10S)-10-((R)-(4-fluorophenyl)(4-(trifluoromethyl)phenyl)methyl)-4-hydroxy-8,9,9a,10-tetrahydro-7H-pyrrolo[1′,2′:4,5]pyrazino[1,2-b]pyridazine-3,5-dione] | 100 to 1000 nM | 100 to 1000 nM | 100 to 1000 nM |
| O=C1c2c(O)c(=O)cnn2[C@@H]([C@H](c2cccc(C(F)(F)F)c2)c2cccc(F)c2F)[C@H]2CCCN12 [Example 3, (9aR,10S)-10-((R)-(2,3-difluorophenyl)(3-(trifluoromethyl)phenyl)methyl)-4-hydroxy-8,9,9a,10-tetrahydro-7H-pyrrolo[1′,2′:4,5]pyrazino[1,2-b]pyridazine-3,5-dione] | < 100 nM | < 100 nM | < 100 nM |
| O=C1c2c(O)c(=O)cnn2[C@@H]([C@@H](c2ccc(F)cc2)c2cccc(OC(F)(F)F)c2)[C@H]2CCCN12 [Example 4, (9aR,10S)-10-((S)-(4-fluorophenyl)(3-(trifluoromethoxy)phenyl)methyl)-4-hydroxy-8,9,9a,10-tetrahydro-7H-pyrrolo[1′,2′:4,5]pyrazino[1,2-b]pyridazine-3,5-dione] | < 100 nM | 100 to 1000 nM | < 100 nM |
| O=C1c2c(O)c(=O)cnn2[C@@H]([C@@H](c2ccc(F)cc2)c2ccc(OC(F)(F)F)cc2)[C@H]2CCCN12 [Example 5, (9aR,10S)-10-((R)-(4-fluorophenyl)(4-(trifluoromethoxy)phenyl)methyl)-4-hydroxy-8,9,9a,10-tetrahydro-7H-pyrrolo[1′,2′:4,5]pyrazino[1,2-b]pyridazine-3,5-dione] | 100 to 1000 nM | 100 to 1000 nM | 100 to 1000 nM |
| COc1c2n(ncc1=O)[C@@H]([C@H](c1ccccc1)c1cccc(F)c1F)[C@H]1CCCN1C2=O [Example 38, (9aR,10S)-10-((R)-(2,3-difluorophenyl)(phenyl)methyl)-4-methoxy-8,9,9a,10-tetrahydro-7H-pyrrolo[1′,2′:4,5]pyrazino[1,2-b]pyridazine-3,5-dione] | – | ≥ 1000 nM | ≥ 1000 nM |
| COC(C)(C)C(=O)OCOc1c2n(ncc1=O)[C@@H]([C@H](c1ccccc1)c1cccc(F)c1F)[C@H]1CCCN1C2=O [Example 41, (((9aR,10S)-10-((R)-(2,3-difluorophenyl)(phenyl)methyl)-3,5-dioxo-3,5,8,9,9a,10-hexahydro-7H-pyrrolo[1′,2′:4,5]pyrazino[1,2-b]pyridazin-4-yl)oxy)methyl 2-methoxy-2-methylpropanoate] | – | < 100 nM | < 100 nM |
| COCCOC(=O)OCOc1c2n(ncc1=O)[C@@H]([C@H](c1ccccc1)c1cccc(F)c1F)[C@H]1CCCN1C2=O [Example 46, (((9aR,10S)-10-((R)-(2,3-difluorophenyl)(phenyl)methyl)-3,5-dioxo-3,5,8,9,9a,10-hexahydro-7H-pyrrolo[1′,2′:4,5]pyrazino[1,2-b]pyridazin-4-yl)oxy)methyl (2-methoxyethyl) carbonate] | – | ≥ 1000 nM | ≥ 1000 nM |
| CCN(C)C(=O)Oc1c2n(ncc1=O)[C@@H]([C@H](c1ccccc1)c1cccc(F)c1F)[C@H]1CCCN1C2=O [Example 47, (9aR,10S)-10-((R)-(2,3-difluorophenyl)(phenyl)methyl)-3,5-dioxo-3,5,8,9,9a,10-hexahydro-7H-pyrrolo[1′,2′:4,5]pyrazino[1,2-b]pyridazin-4-yl ethyl(methyl)carbamate] | – | ≥ 1000 nM | ≥ 1000 nM |
| COC(=O)Oc1c2n(ncc1=O)[C@@H]([C@H](c1ccccc1)c1cccc(F)c1F)[C@H]1CCCN1C2=O [Example 54, (9aR,10S)-10-((R)-(2,3-difluorophenyl)(phenyl)methyl)-3,5-dioxo-3,5,8,9,9a,10-hexahydro-7H-pyrrolo[1′,2′:4,5]pyrazino[1,2-b]pyridazin-4-yl methyl carbonate] | – | < 100 nM | < 100 nM |
| COCCC(=O)OCOc1c2n(ncc1=O)[C@@H]([C@H](c1ccccc1)c1cccc(F)c1F)[C@H]1CCCN1C2=O [Example 64, (((9aR,10S)-10-((R)-(2,3-difluorophenyl)(phenyl)methyl)-3,5-dioxo-3,5,8,9,9a,10-hexahydro-7H-pyrrolo[1′,2′:4,5]pyrazino[1,2-b]pyridazin-4-yl)oxy)methyl 3-methoxypropanoate] | – | ≥ 1000 nM | ≥ 1000 nM |
| O=C(Oc1c2n(ncc1=O)[C@@H]([C@H](c1ccccc1)c1cccc(F)c1F)[C@H]1CCCN1C2=O)N1CCC(N2CCCCC2)CC1 [Example 65, (9aR,10S)-10-((R)-(2,3-difluorophenyl)(phenyl)methyl)-3,5-dioxo-3,5,8,9,9a,10-hexahydro-7H-pyrrolo[1′,2′:4,5]pyrazino[1,2-b]pyridazin-4-yl [1,4′-bipiperidine]-1′-carboxylate] | – | ≥ 1000 nM | ≥ 1000 nM |
| O=C(Oc1c2n(ncc1=O)[C@@H]([C@H](c1ccccc1)c1cccc(F)c1F)[C@H]1CCCN1C2=O)N1CCOCC1 [Example 66, (9aR,10S)-10-((R)-(2,3-difluorophenyl)(phenyl)methyl)-3,5-dioxo-3,5,8,9,9a,10-hexahydro-7H-pyrrolo[1′,2′:4,5]pyrazino[1,2-b]pyridazin-4-yl morpholine-4-carboxylate] | – | ≥ 1000 nM | ≥ 1000 nM |
| COc1c2n(ncc1=O)[C@@H]([C@H](c1ccc(F)cc1)c1cccc(F)c1F)[C@H]1CCCN1C2=O [Example 81, (9aR,10S)-10-((R)-(2,3-difluorophenyl)(4-fluorophenyl)methyl)-4-methoxy-8,9,9a,10-tetrahydro-7H-pyrrolo[1′,2′:4,5]pyrazino[1,2-b]pyridazine-3,5-dione] | – | ≥ 1000 nM | ≥ 1000 nM |
| CN(C)C(=O)Oc1c2n(ncc1=O)[C@@H]([C@H](c1ccc(F)cc1)c1cccc(F)c1F)[C@H]1CCCN1C2=O [Example 87, (9aR,10S)-10-((R)-(2,3-difluorophenyl)(4-fluorophenyl)methyl)-3,5-dioxo-3,5,8,9,9a,10-hexahydro-7H-pyrrolo[1′,2′:4,5]pyrazino[1,2-b]pyridazin-4-yl dimethylcarbamate] | – | ≥ 1000 nM | ≥ 1000 nM |
| CC(C)OC(=O)OCOc1c2n(ncc1=O)[C@@H]([C@H](c1ccc(F)cc1)c1cccc(F)c1F)[C@H]1CCCN1C2=O [Example 89, (((9aR,10S)-10-((R)-(2,3-difluorophenyl)(4-fluorophenyl)methyl)-3,5-dioxo-3,5,8,9,9a,10-hexahydro-7H-pyrrolo[1′,2′:4,5]pyrazino[1,2-b]pyridazin-4-yl)oxy)methyl isopropyl carbonate] | – | < 100 nM | < 100 nM |
| COC(C)(C)C(=O)Oc1c2n(ncc1=O)[C@@H]([C@H](c1ccc(F)cc1)c1cccc(F)c1F)[C@H]1CCCN1C2=O [Example 90, (9aR,10S)-10-((R)-(2,3-difluorophenyl)(4-fluorophenyl)methyl)-3,5-dioxo-3,5,8,9,9a,10-hexahydro-7H-pyrrolo[1′,2′:4,5]pyrazino[1,2-b]pyridazin-4-yl 2-methoxy-2-methylpropanoate] | – | < 100 nM | < 100 nM |
| CC(C)(C)OC(=O)OCOc1c2n(ncc1=O)[C@@H]([C@H](c1ccc(F)cc1)c1cccc(F)c1F)[C@H]1CCCN1C2=O [Example 91, tert-butyl ((((9aR,10S)-10-((R)-(2,3-difluorophenyl)(4-fluorophenyl)methyl)-3,5-dioxo-3,5,8,9,9a,10-hexahydro-7H-pyrrolo[1′,2′:4,5]pyrazino[1,2-b]pyridazin-4-yl)oxy)methyl) carbonate] | – | < 100 nM | < 100 nM |
| CN(C)C(=O)OCOc1c2n(ncc1=O)[C@@H]([C@H](c1cccc(F)c1)c1cccc(F)c1F)[C@H]1CCCN1C2=O [Example 101, (((9aR,10S)-10-((R)-(2,3-difluorophenyl)(3-fluorophenyl)methyl)-3,5-dioxo-3,5,8,9,9a,10-hexahydro-7H-pyrrolo[1′,2′:4,5]pyrazino[1,2-b]pyridazin-4-yl)oxy)methyl dimethylcarbamate] | – | ≥ 1000 nM | 100 to 1000 nM |
| CC(C)OC(=O)Oc1c2n(ncc1=O)[C@@H]([C@H](c1cccc(F)c1)c1cccc(F)c1F)[C@H]1CCCN1C2=O [Example 103, (9aR,10S)-10-((R)-(2,3-difluorophenyl)(3-fluorophenyl)methyl)-3,5-dioxo-3,5,8,9,9a,10-hexahydro-7H-pyrrolo[1′,2′:4,5]pyrazino[1,2-b]pyridazin-4-yl isopropyl carbonate] | – | < 100 nM | < 100 nM |
| CC(C)(C)C(=O)OCOc1c2n(ncc1=O)[C@@H]([C@H](c1cccc(F)c1)c1cccc(F)c1F)[C@H]1CCCN1C2=O [Example 109, (((9aR,10S)-10-((R)-(2,3-difluorophenyl)(3-fluorophenyl)methyl)-3,5-dioxo-3,5,8,9,9a,10-hexahydro-7H-pyrrolo[1′,2′:4,5]pyrazino[1,2-b]pyridazin-4-yl)oxy)methyl pivalate] | – | < 100 nM | < 100 nM |
| CC(C)(C)C(=O)Oc1c2n(ncc1=O)[C@@H]([C@H](c1cccc(F)c1)c1cccc(F)c1F)[C@H]1CCCN1C2=O [Example 111, (9aR,10S)-10-((R)-(2,3-difluorophenyl)(3-fluorophenyl)methyl)-3,5-dioxo-3,5,8,9,9a,10-hexahydro-7H-pyrrolo[1′,2′:4,5]pyrazino[1,2-b]pyridazin-4-yl pivalate] | – | < 100 nM | < 100 nM |
